Reference: US8802671B2, “Quinoline derivatives as antibacterial agents” (Janssen Pharmaceutica NV, priority 2005, dated 2014)
In brackets after ≈: the same amount, converted by molar mass.

What was measured:
[1] = tested on: methicilline resistant Staphylococcus aureus (MRSA) (a clinical isolate from the University of Antwerp); assay: Microtitre plate assay, IC90 determination; format: cell-based; conditions: 90% inhibitory concentration for bacterial growth; for IC90: Staphylococcus aureus, MRSA, read-out: IC90 STA RMETHIC
Procedure: (§1) The bacteria used in this study were grown overnight in flasks containing 100 ml Mueller-Hinton Broth (Becton Dickinson—cat. no. 275730) in sterile de-ionized water, with shaking, at 37° C. Stocks (0.5 ml/tube) were stored at −70° C. until use. Bacteria titrations were performed in microtiter plates and colony forming units (CFUs) were determined. In general, an inoculum level of approximately 100 CFUs was used for susceptibility testing.
(§2) Anti Bacterial Susceptibility Testing: IC90 Determination
(§3) Flat-bottom, sterile 96-well plastic microtiter plates were filled with 180 μl of sterile deionized water, supplemented with 0.25% BSA. Subsequently, stock solutions (7.8× final test concentration) of compounds were added in 45 μl volumes in column 2. Serial five-fold dilutions (45 μl in 180 μl) were made directly in the microtiter plates from column 2 to reach column 11. Untreated control samples with (column 1) and without (column 12) inoculum were included in each microtiter plate. Depending on the bacteria type, approximately 10 to 60 CFU per well of bacteria inoculum (100 TCID50), in a volume of 100 μl in 2.8× Mueller-Hinton broth medium, was added to the rows A to H, except column 12. The same volume of broth medium without inoculum was added to column 12 in row A to H. The cultures were incubated at 37° C. for 24 hours under a normal atmosphere (incubator with open air valve and continuous ventilation). At the end of incubation, one day after inoculation, the bacterial growth was quantitated fluorometrically. Therefore resazurin (0.6 mg/ml) was added in a volume of 20 μl to all wells 3 hours after inoculation, and the plates were re-incubated overnight. A change in colour from blue to pink indicated the growth of bacteria. The fluorescence was read in a computer-controlled fluorometer (Cytofluor Biosearch) at an excitation wavelength of 530 nm and an emission wavelength of 590 nm. The % growth inhibition achieved by the compounds was calculated according to standard methods. The IC90 (expressed in μg/ml) was defined as the 90% inhibitory concentration for bacterial growth.

[2] = tested on: Pseudomonas aeruginosa (ATCC27853); assay: Microtitre plate assay, IC90 determination; format: cell-based; conditions: 90% inhibitory concentration for bacterial growth; for IC90: read-out: IC90 PAE 27853
Procedure: as §1, §2, §3

[3] = tested on: Staphylococcus aureus (ATCC25923); assay: Microtitre plate assay, IC90 determination; format: cell-based; conditions: for IC90: Staphylococcus aureus, ATCC25923, 90% inhibitory concentration for bacterial growth, read-out: IC90 STA 25923; for IC90 STA 25923: 90% inhibitory concentration for bacterial growth
Procedure: as §1, §2, §3

[4] = tested on: Streptococcus pyogens (ATCC8668); assay: Microtitre plate assay, IC90 determination; format: cell-based; conditions: for IC90: Streptococcus, ATCC8668, 90% inhibitory concentration for bacterial growth, read-out: IC90 SPY 8668; for IC90 SPY 8668: 90% inhibitory concentration for bacterial growth
Procedure: as §1, §2, §3

[5] = tested on: Streptococcus mutans (ATCC33402); assay: Microtitre plate assay, IC90 determination; format: cell-based; conditions: 90% inhibitory concentration for bacterial growth, read-out: IC90 SMU 33402
Procedure: as §1, §2, §3

[6] = tested on: Staphylococcus aureus (ATCC29213); assay: Microtitre plate assay, IC90 determination; format: cell-based; conditions: 90% inhibitory concentration for bacterial growth, 37° C., resazurin fluorescence; for IC90: Staphylococcus aureus, ATCC29213, 24 h, read-out: IC90 STA 29213; for IC90 STA 29213: 24 hours
Procedure: as §1, §2, §3

[7] = tested on: Listeria monocytogenes (ATCC49594); assay: Microtitre plate assay, IC90 determination; format: cell-based; conditions: 90% inhibitory concentration for bacterial growth; for IC90: read-out: IC90 LMO 49594
Procedure: as §1, §2, §3

[8] = tested on: Streptococcus pneumoniae (ATCC6305); assay: Microtitre plate assay, IC90 determination; format: cell-based; conditions: 90% inhibitory concentration for bacterial growth; for IC90: read-out: IC90 SPN 6305
Procedure: as §1, §2, §3

[9] = tested on: Enterococcus faecalis (ATCC29212); assay: Microtitre plate assay, IC90 determination; format: cell-based; conditions: 90% inhibitory concentration for bacterial growth; for IC90: read-out: IC90 EFA 29212
Procedure: as §1, §2, §3

[10] = tested on: Bacillus subtilis (ATCC43639); assay: Microtitre plate assay, IC90 determination; format: cell-based; conditions: 90% inhibitory concentration for bacterial growth; for IC90: read-out: IC90 BSU 43639
Procedure: as §1, §2, §3

[11] = tested on: Enterococcus faecalis (ATCC14506); assay: Microtitre plate assay, IC90 determination; format: cell-based; conditions: 90% inhibitory concentration for bacterial growth; for IC90: read-out: IC90 EFA 14506
Procedure: as §1, §2, §3

| Structure (SMILES) | melting point [°C] | IC90 [1] [µg/mL] | IC90 [2] [µg/mL] | IC90 [3] [µg/mL] | IC90 [4] [µg/mL] | IC90 [6] [µg/mL] | IC90 [7] [µg/mL] | IC90 [8] [µg/mL] | IC90 [9] [µg/mL] | IC90 [10] [µg/mL] | other results |
| --- | --- | --- | --- | --- | --- | --- | --- | --- | --- | --- | --- |
| CN(C)CC(c1cccc(F)c1)C(O)C(Cc1ccccc1)c1ccc2cc(Br)ccc2n1 (single isomer, unassigned) [Compound 1] | 136 | 12.8 (≈ 25.2 µM) | 12.8 (≈ 25.2 µM) | 12.8 (≈ 25.2 µM) | 10.1 (≈ 19.9 µM) | 12.8 (≈ 25.2 µM) | 10.1 (≈ 19.9 µM) | 12.8 (≈ 25.2 µM) | 12.8 (≈ 25.2 µM) |  | IC90 [5]: 10.1 µg/mL (≈ 19.9 µM) |
| CN(C)CC(c1cccc2ccccc12)C(O)C(Cc1ccccc1)c1ccc2cc(Br)ccc2n1 (single isomer, unassigned) [Compound 2] | 143 | 13.6 (≈ 25.2 µM) | 10.8 (≈ 20 µM) | 13.6 (≈ 25.2 µM) | 10.8 (≈ 20 µM) | 12.1 (≈ 22.4 µM) | 10.8 (≈ 20 µM) | 13.6 (≈ 25.2 µM) | 10.8 (≈ 20 µM) | 13.6 (≈ 25.2 µM) | IC90 [11]: 12.1 µg/mL (≈ 22.4 µM); IC90 [5]: 10.8 µg/mL (≈ 20 µM) |
| CN(C)CC(c1cccc2ccccc12)C(O)C(Cc1ccccc1)c1ccc2cc(Br)ccc2n1 (single isomer, unassigned) [Compound 3] | 69 |  |  |  |  |  |  |  |  |  |  |
| CN(C)CC(c1cccc(F)c1)C(O)C(Cc1ccccc1)c1ccc2cc(Br)ccc2n1 (single isomer, unassigned) [Compound 4] | 179 |  |  |  |  |  |  |  |  |  |  |
| CCc1cc2cc(C(c3ccccc3)C(O)(CCN(C)C)c3cccc4ccccc34)ccc2nc1Cl (single isomer, unassigned) [Compound 5] |  |  |  |  |  |  |  |  |  |  | IC90 BSU 43639 [10]: 12.8 µg/mL (≈ 25.1 µM); IC90 STA RMETHIC [1]: 12.8 µg/mL (≈ 25.1 µM); IC90 PAE 27853 [2]: 12.8 µg/mL (≈ 25.1 µM); IC90 STA 25923 [3]: 5.1 µg/mL (≈ 10 µM); IC90 SPY 8668 [4]: 12.8 µg/mL (≈ 25.1 µM); IC90 EFA 14506 [11]: 11.4 µg/mL (≈ 22.4 µM); IC90 STA 29213 [6]: 12.8 µg/mL (≈ 25.1 µM); IC90 LMO 49594 [7]: 12.8 µg/mL (≈ 25.1 µM); IC90 SPN 6305 [8]: 12.8 µg/mL (≈ 25.1 µM); IC90 EFA 29212 [9]: 12.8 µg/mL (≈ 25.1 µM) |
| CCc1cc2cc(C(c3ccccc3)C(O)(CCN(C)C)c3cccc4ccccc34)ccc2nc1Cl (single isomer, unassigned) [Compound 6] |  |  | 12.8 (≈ 25.1 µM) |  | 12.8 (≈ 25.1 µM) | 12.8 (≈ 25.1 µM) | 12.8 (≈ 25.1 µM) | 12.8 (≈ 25.1 µM) | 12.8 (≈ 25.1 µM) | 12.8 (≈ 25.1 µM) | IC90 STA RMETHIC [1]: 50.9 µg/mL (≈ 100 µM); IC90 STA 25923 [3]: 12.8 µg/mL (≈ 25.1 µM); IC90 [11]: 11.4 µg/mL (≈ 22.4 µM) |
| CCc1cc2ccc(C(c3ccccc3)C(O)(CCN(C)C)c3cc(F)cc(F)c3)cc2nc1Cl (single isomer, unassigned) [Compound 9] |  |  |  |  |  |  |  |  |  |  | IC90 BSU 43639 [10]: 12.4 µg/mL (≈ 25 µM); IC90 STA RMETHIC [1]: 12.4 µg/mL (≈ 25 µM); IC90 PAE 27853 [2]: 9.9 µg/mL (≈ 20 µM); IC90 STA 25923 [3]: 12.4 µg/mL (≈ 25 µM); IC90 SPY 8668 [4]: 9.9 µg/mL (≈ 20 µM); IC90 [11]: 11.1 µg/mL (≈ 22.4 µM); IC90 [5]: 9.9 µg/mL (≈ 20 µM); IC90 STA 29213 [6]: 11.1 µg/mL (≈ 22.4 µM); IC90 LMO 49594 [7]: 12.4 µg/mL (≈ 25 µM); IC90 SPN 6305 [8]: 12.4 µg/mL (≈ 25 µM); IC90 EFA 29212 [9]: 12.4 µg/mL (≈ 25 µM) |
| CCc1cc2ccc(C(c3ccccc3)C(O)(CCN(C)C)c3cc(F)cc(F)c3)cc2nc1Cl (single isomer, unassigned) [Compound 10] |  | 12.4 (≈ 25 µM) | 9.9 (≈ 20 µM) | 12.4 (≈ 25 µM) | 12.4 (≈ 25 µM) | 12.4 (≈ 25 µM) | 12.4 (≈ 25 µM) | 12.4 (≈ 25 µM) | 12.4 (≈ 25 µM) | 12.4 (≈ 25 µM) |  |
| CCc1cc2cc(C(c3ccccc3)C(O)(CCN(C)C)c3cc(F)cc(F)c3)ccc2nc1Cl (single isomer, unassigned) [Compound 11] |  | 49.5 (≈ 100 µM) | 12.4 (≈ 25 µM) | 49.5 (≈ 100 µM) | 12.4 (≈ 25 µM) | 12.4 (≈ 25 µM) | 7.9 (≈ 16 µM) | 12.4 (≈ 25 µM) | 12.4 (≈ 25 µM) | 39.3 (≈ 79.4 µM) |  |
| CCc1cc2cc(C(c3ccccc3)C(O)(CCCCN(C)C)c3ccccc3)ccc2nc1OC (single isomer, unassigned) [Compound 12] |  |  |  |  |  | 1.53 (≈ 3.17 µM) |  | 1.53 (≈ 3.17 µM) |  |  |  |
| COc1nc2ccc(C(c3ccccc3)C(O)(CCCCN(C)C)c3ccccc3)cc2cc1C (single isomer, unassigned) [Compound 13] |  |  |  |  |  | 7.43 (≈ 15.9 µM) |  | 7.43 (≈ 15.9 µM) |  |  |  |
